Source: ChEMBL document CHEMBL4325844, “Development of 2-amino-4-phenylthiazole analogues to disrupt myeloid differentiation factor 88 and prevent inflammatory responses in acute lung injury” (Eur J Med Chem, 2019)
Active and inactive are the calls of the source. The rule behind the calls is not given here.

Tests used:
Peritoneal macrophage [1] = experiment: Antiinflammatory activity in ICR mouse primary peritoneal macrophages assessed as inhibition of LPS-induced IL-6 production at 20 uM preincubated for 60 mins followed by LPS stimulation and measured after 24 hrs by ELISA relative to control; type: functional
Peritoneal macrophage [2] = experiment: Antiinflammatory activity in ICR mouse primary peritoneal macrophages assessed as inhibition of LPS-induced TNFalpha production at 20 uM preincubated for 60 mins followed by LPS stimulation and measured after 24 hrs by ELISA relative to control; type: functional
Peritoneal macrophage [3] = experiment: Antiinflammatory activity in ICR mouse primary peritoneal macrophages assessed as inhibition of LPS-induced IL-6 production preincubated for 2 hrs followed by LPS stimulation and measured after 22 hrs by ELISA; type: functional, cell-based
Peritoneal macrophage [4] = experiment: Antiinflammatory activity in ICR mouse primary peritoneal macrophages assessed as inhibition of LPS-induced TNFalpha production preincubated for 2 hrs followed by LPS stimulation and measured after 22 hrs by ELISA; type: functional, cell-based
[5] = Cytotoxicity against ICR mouse primary peritoneal macrophages assessed as cell viability at 20 uM after 24 hrs by MTT assay relative to control; type: cell-based, Peritoneal macrophage; settings: read-out: Activity
[6] = Cytotoxicity against rat NRK cells assessed as cell viability at 20 uM after 24 hrs by MTT assay relative to control; type: cell-based; settings: read-out: Activity
[7] = Cytotoxicity against rat H9c2 cells assessed as cell viability at 20 uM after 24 hrs by MTT assay relative to control; type: cell-based; settings: read-out: Activity
[8] = target: T1, Myeloid differentiation primary response protein MyD88 (Homo sapiens, UniProt Q99836); experiment: Inhibition of LPS-induced HA-tagged MyD88 (unknown origin) interaction with FLAG-tagged MyD88 (unknown origin) expressed in HEK293 cells at 20 uM after 48 hrs by co-immunoprecipitation method; type: cell-based
T1 sequence (Q99836 whole entry, the tested form may be a part): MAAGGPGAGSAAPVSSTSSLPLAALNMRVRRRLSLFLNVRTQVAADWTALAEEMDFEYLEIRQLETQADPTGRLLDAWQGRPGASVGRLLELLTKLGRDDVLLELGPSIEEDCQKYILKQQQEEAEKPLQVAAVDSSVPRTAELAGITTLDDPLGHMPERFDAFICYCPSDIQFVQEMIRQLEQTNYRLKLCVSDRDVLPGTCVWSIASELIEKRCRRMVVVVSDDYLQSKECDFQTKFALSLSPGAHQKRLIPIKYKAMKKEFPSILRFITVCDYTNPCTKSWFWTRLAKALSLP

[9] = target: T1, Myeloid differentiation primary response protein MyD88; experiment: Binding affinity to recombinant human MyD88 TIR domain (157 to 296 residues) expressed in Escherichia coli BL21(DE3) by surface plasmon resonance analysis
[10] = target: Myeloid differentiation primary response protein MyD88 (Mus musculus) (UniProt P22366); experiment: Inhibition of MyD88 in ICR mouse primary peritoneal macrophages assessed as reduction in LPS-induced JNK phosphorylation at 20 uM preincubated for 30 mins followed by LPS-stimulation and measured after 20 mins by Western blot analysis
Sequence of Myeloid differentiation primary response protein MyD88 (Mus musculus) (P22366 whole entry): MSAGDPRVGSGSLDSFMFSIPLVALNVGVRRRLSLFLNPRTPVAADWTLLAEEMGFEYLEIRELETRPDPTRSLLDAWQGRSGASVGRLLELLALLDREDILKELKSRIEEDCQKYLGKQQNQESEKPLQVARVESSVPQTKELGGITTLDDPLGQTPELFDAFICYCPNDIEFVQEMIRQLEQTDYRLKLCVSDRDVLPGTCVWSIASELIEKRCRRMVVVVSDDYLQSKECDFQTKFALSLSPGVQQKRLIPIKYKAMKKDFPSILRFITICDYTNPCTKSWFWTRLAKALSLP

[11] = target: Myeloid differentiation primary response protein MyD88 (Mus musculus) (UniProt P22366); experiment: Inhibition of MyD88 in ICR mouse primary peritoneal macrophages assessed as reduction in LPS-induced ERK phosphorylation at 20 uM preincubated for 30 mins followed by LPS-stimulation and measured after 20 mins by Western blot analysis
[12] = target: Myeloid differentiation primary response protein MyD88 (Mus musculus) (UniProt P22366); experiment: Inhibition of MyD88 in ICR mouse primary peritoneal macrophages assessed as reduction in LPS-induced p38 MAPK phosphorylation at 20 uM preincubated for 30 mins followed by LPS-stimulation and measured after 20 mins by Western blot analysis
Mus musculus [13] = experiment: Antiinflammatory activity in LPS-induced C57/BL6 mouse model of acute lung injury assessed as reduction in lung wet/dry ratio at 10 mg/kg, ip pretreated for 30 mins followed by LPS challenge measured after 6 hrs; type: functional, organism-based
Mus musculus [14] = experiment: Antiinflammatory activity in LPS-induced C57/BL6 mouse model of acute lung injury assessed as reduction in IL6 level in BALF at 10 mg/kg, ip pretreated for 30 mins followed by LPS challenge measured after 6 hrs by ELISA; type: functional, organism-based
Mus musculus [15] = experiment: Antiinflammatory activity in LPS-induced C57/BL6 mouse model of acute lung injury assessed as reduction in TNFalpha level in BALF at 10 mg/kg, ip pretreated for 30 mins followed by LPS challenge measured after 6 hrs by ELISA; type: functional, organism-based
Mus musculus [16] = experiment: Antiinflammatory activity in LPS-induced C57/BL6 mouse model of acute lung injury assessed as reduction in IL6 level in serum at 10 mg/kg, ip pretreated for 30 mins followed by LPS challenge measured after 6 hrs by ELISA; type: functional, organism-based
Mus musculus [17] = experiment: Antiinflammatory activity in LPS-induced C57/BL6 mouse model of acute lung injury assessed as reduction in TNFalpha level in serum at 10 mg/kg, ip pretreated for 30 mins followed by LPS challenge measured after 6 hrs by ELISA; type: functional, organism-based

Structure (SMILES)	inhibition at 20 µM (Peritoneal macrophage [1])	inhibition at 20 µM (Peritoneal macrophage [2])	further results
CN1CCN(CCC(=O)Nc2nc(-c3ccccc3)cs2)CC1	–	–	inhibition (Peritoneal macrophage [1]): inactive; inhibition (Peritoneal macrophage [2]): inactive
COc1ccc(-c2csc(NC(=O)CCN3CCN(Cc4cccc([N+](=O)[O-])c4)CC3)n2)cc1	82%	73.8%	–
O=C(CCN1CCN(Cc2cccc([N+](=O)[O-])c2)CC1)Nc1nc(-c2ccc(C3CCCCC3)cc2)cs1	28.5%	19.8%	–
O=C(CCN1CCN(Cc2cccc([N+](=O)[O-])c2)CC1)Nc1nc(-c2ccc(F)cc2)cs1	86.4%	65.6%	–
O=C(CCN1CCN(S(=O)(=O)c2cccc(Cl)c2)CC1)Nc1nc(-c2ccccc2)cs1	61.1%	32.8%	–
O=C(CCN1CCN(S(=O)(=O)c2ccc(Cl)cc2)CC1)Nc1nc(-c2ccccc2)cs1	70.3%	37.6%	–
N#Cc1cccc(CN2CCN(CCC(=O)Nc3nc(-c4ccccc4)cs3)CC2)c1	78.3%	52.3%	–
COc1ccc(S(=O)(=O)N2CCN(CCC(=O)Nc3nc(-c4ccccc4)cs3)CC2)cc1OC	49.5%	37.2%	–
COc1ccc(S(=O)(=O)N2CCN(CCC(=O)Nc3nc(-c4ccccc4)cs3)CC2)cc1	35.6%	33.1%	–
COC(=O)c1csc(NC(=O)CCN2CCN(Cc3cccc([N+](=O)[O-])c3)CC2)n1	56.3%	31.7%	–
Cc1ccc(-c2csc(NC(=O)CCN3CCN(Cc4cccc([N+](=O)[O-])c4)CC3)n2)cc1	75.1%	79%	–
O=C(CCN1CCN(Cc2c(Cl)cccc2Cl)CC1)Nc1nc(-c2ccccc2)cs1	73.8%	37.1%	–
O=C(CCN1CCN(S(=O)(=O)c2cc(Cl)cc(Cl)c2)CC1)Nc1nc(-c2ccccc2)cs1	55.6%	49.1%	–
O=C(CCN1CCN(S(=O)(=O)c2ccc(C(F)(F)F)cc2)CC1)Nc1nc(-c2ccccc2)cs1	–	2.54%	inhibition (Peritoneal macrophage [1]): inactive
O=C(CCN1CCN(S(=O)(=O)c2ccc([N+](=O)[O-])cc2)CC1)Nc1nc(-c2ccccc2)cs1	40.6%	38.6%	–
O=C(CCN1CCN(Cc2cccc([N+](=O)[O-])c2)CC1)Nc1nc(-c2ccc(F)c(F)c2)cs1	86.7%	61.8%	–
O=C(CCN1CCN(Cc2cccc(Cl)c2)CC1)Nc1nc(-c2ccccc2)cs1	74.5%	48.8%	–
O=C(CCN1CCN(Cc2ccc([N+](=O)[O-])cc2)CC1)Nc1nc(-c2ccccc2)cs1	76.8%	56.7%	–
CC(C)(C)c1ccc(CN2CCN(CCC(=O)Nc3nc(-c4ccccc4)cs3)CC2)cc1	51.8%	12%	–
CCOc1ccc(-c2csc(NC(=O)CCN3CCN(Cc4cccc([N+](=O)[O-])c4)CC3)n2)cc1	85.3%	74.3%	–
COc1ccc(-c2csc(NC(=O)CCN3CCN(Cc4cccc([N+](=O)[O-])c4)CC3)n2)cc1OC	90.2%	87.6%	IC50 (Peritoneal macrophage [3]): 3.15 µM; inhibition (Peritoneal macrophage [3]): Dose-dependent effect; IC50 (Peritoneal macrophage [4]): 1.77 µM; inhibition (Peritoneal macrophage [4]): Dose-dependent effect; viability at 24 h, 20 µM [5]: > 80%; viability at 24 h, 20 µM [6]: > 80%; viability at 24 h, 20 µM [7]: > 80%
Cc1ccc(CN2CCN(CCC(=O)Nc3nc(-c4ccccc4)cs3)CC2)cc1	67.6%	27.1%	–
O=C(CCN1CCN(Cc2cccc([N+](=O)[O-])c2)CC1)Nc1nc(-c2ccc([N+](=O)[O-])cc2)cs1	58.8%	32.4%	–
O=C(CCN1CCN(Cc2cccc([N+](=O)[O-])c2)CC1)Nc1nc(-c2cccc(Br)c2)cs1	73%	52.5%	–

Structure (SMILES)	inhibition at 20 µM (Peritoneal macrophage [1])	inhibition at 20 µM (Peritoneal macrophage [2])	further results
O=C(CCN1CCN(Cc2ccc(F)cc2)CC1)Nc1nc(-c2ccccc2)cs1	70.9%	47.9%	–
O=C(CCN1CCN(Cc2ccccc2)CC1)Nc1nc(-c2ccccc2)cs1	69.3%	47%	IC50 (Peritoneal macrophage [3]): 10.2 µM; IC50 (Peritoneal macrophage [4]): 11.9 µM; inhibition [8]: Active; Ka [9]: 3340 M⁻¹ s⁻¹; Kd [9]: 180 µM; Kdiss [9]: 0.6 s⁻¹; inhibition [10]: Active; inhibition [11]: Active; inhibition [12]: Active; Activity (Mus musculus [13]): Active; Activity (Mus musculus [14]): Active; Activity (Mus musculus [15]): Active; Activity (Mus musculus [16]): Active; Activity (Mus musculus [17]): Active
O=C(CCN1CCN(Cc2ccc(Cl)cc2)CC1)Nc1nc(-c2ccccc2)cs1	63.4%	52.8%	–
O=C(CCN1CCN(Cc2cccc(F)c2)CC1)Nc1nc(-c2ccccc2)cs1	68.5%	40.5%	–
Nc1cccc(CN2CCN(CCC(=O)Nc3nc(-c4ccccc4)cs3)CC2)c1	11.5%	13.6%	–
O=C(CCN1CCN(Cc2cccc([N+](=O)[O-])c2)CC1)Nc1nc(-c2ccc(Br)cc2)cs1	81%	71.9%	–
COc1ccc(CN2CCN(CCC(=O)Nc3nc(-c4ccccc4)cs3)CC2)cc1	75.3%	40.2%	–
O=C(CCN1CCN(Cc2cccc([N+](=O)[O-])c2)CC1)Nc1nc(-c2ccc(Cl)cc2)cs1	77.6%	58.3%	–
O=C(CCN1CCN(Cc2cccc([N+](=O)[O-])c2)CC1)Nc1nc(-c2ccccc2)cs1	81.5%	64.2%	–
O=C(CCN1CCN(Cc2cccc([N+](=O)[O-])c2)CC1)Nc1nc(-c2ccccc2Br)cs1	86.9%	83.2%	IC50 (Peritoneal macrophage [3]): 4.65 µM; inhibition (Peritoneal macrophage [3]): Dose-dependent effect; IC50 (Peritoneal macrophage [4]): 5.15 µM; inhibition (Peritoneal macrophage [4]): Dose-dependent effect; viability at 24 h, 20 µM [5]: > 80%; viability at 24 h, 20 µM [6]: > 80%; viability at 24 h, 20 µM [7]: > 80%
O=C(CCN1CCN(Cc2cccc([N+](=O)[O-])c2)CC1)Nc1nc2ccccc2s1	64.2%	63.6%	–
O=C(CCN1CCN(Cc2ccc3ccccc3c2)CC1)Nc1nc(-c2ccccc2)cs1	18.3%	2.41%	–
N#Cc1ccc(CN2CCN(CCC(=O)Nc3nc(-c4ccccc4)cs3)CC2)cc1	67.3%	33.7%	–
O=C(CCN1CCN(Cc2cccc([N+](=O)[O-])c2)CC1)Nc1nc(C2CCC2)cs1	66.3%	61.4%	–
O=C(CCN1CCN(CCc2ccccc2)CC1)Nc1nc(-c2ccccc2)cs1	27.4%	9.1%	–
COc1cc(CN2CCN(CCC(=O)Nc3nc(-c4ccccc4)cs3)CC2)cc(OC)c1	57%	34.2%	–
Nc1ccc(CN2CCN(CCC(=O)Nc3nc(-c4ccccc4)cs3)CC2)cc1	45.8%	10.1%	–
O=C(CCN1CCN(S(=O)(=O)c2ccccc2)CC1)Nc1nc(-c2ccccc2)cs1	29.9%	17.6%	–
COc1cccc(CN2CCN(CCC(=O)Nc3nc(-c4ccccc4)cs3)CC2)c1	53.8%	36.1%	–
O=C(CCN1CCN(Cc2cccc([N+](=O)[O-])c2)CC1)Nc1nc(-c2ccco2)cs1	78.7%	65.2%	–
O=C(CCN1CCN(Cc2cccc([N+](=O)[O-])c2)CC1)Nc1nc(-c2cccc([N+](=O)[O-])c2)cs1	76.3%	51.2%	–
O=C(CCN1CCN(Cc2ccc(C(F)(F)F)cc2)CC1)Nc1nc(-c2ccccc2)cs1	69%	55.3%	–
N#Cc1ccc(-c2csc(NC(=O)CCN3CCN(Cc4cccc([N+](=O)[O-])c4)CC3)n2)cc1	50.6%	49.7%	–
